This is an account of results in the NIST ThermoML archive (doi:10.1021/je7004402).

± gives the expanded uncertainty stated by the source.

For data set [1] the following is noted: Liquid; Ebulliometric method (Recirculating still).
Data set [2] is described as follows: refractive index (Na D-line) (dimensionless). The note with it: 298.15 K; 101.33 kPa; Liquid; Standard Abbe refractometry.

As a reminder, the refractive index is a measure of how strongly the sample bends light. `CCOC=O` [ethyl methanoate]: the Normal boiling temperature in data set [1] stood at 54.17 ± 0.2 °C. Also, the refractive index in data set [2] is reported as 1.35901 ± 0.00063.
The corresponding values for `CC(C)c1ccccc1` [isopropylbenzene] are 152.29 ± 0.2 °C and 1.48829 ± 0.00053.
For `C=COC(C)=O` [vinyl acetate] the same measures were 72.80 ± 0.2 °C and 1.39236 ± 0.00053.
